Results published in patent US12703712B2, “Indenonaphthopyrans having trialkylsilyl and ethylenically unsaturated groups” (Transitions Optical, Ltd., priority 2021, dated 2026).

Experiment: Solubility evaluation in polymerizable polysiloxane-containing formulation
Assay type: physicochemical
Conditions: 0.06 g photochromic compound in 1.50 g polymerizable polysiloxane-containing formulation of Table 1; stirred 24 hours at room temperature; visual observation
Protocol: A polymerizable polysiloxane-containing formulation was prepared by mixing together the ingredients and in the amounts as tabulated in the following Table 1.
The photochromic compounds of Comparative Examples CE-1 and CE-2, and Examples 4 and 5, prepared as described in Part-1, were each added to a polymerizable polysiloxane-containing formulation according to Table 1, to form Polymerizable Photochromic Compositions A, B, C, and D, as summarized in the following Table 2. The Polymerizable Photochromic Compositions were each stirred for 24 hours at room temperature after which the solubility of the photochromic compounds was determined by visual observation.

Row | Structure (SMILES) | Observed Solubility
1 | C=C(C)C(=O)OCCOCCOCCOc1ccc(C2(c3ccccc3)C=Cc3c4c(c5cc(N6CCCCC6)c(OC)cc5c3O2)-c2ccc(-c3ccccc3)cc2C4(CCC)CCC)cc1 (stereo not shown) [CE-1] | poor
2 | C=C(C)C(=O)OCCOC(=O)CCC(=O)N1CCN(c2ccc(C3(c4ccccc4)C=Cc4c5c(c6cc(N7CCCCC7)c(OC)cc6c4O3)-c3ccccc3C5(C)C)cc2)CC1 (stereo not shown) [CE-2] | poor
3 | C=C(C)C(=O)OCCOCCOCCOc1ccc(C2(c3ccccc3)C=Cc3c4c(c5cc(N6CCCCC6)c(OC)cc5c3O2)-c2ccc(-c3ccc([Si](C)(C)C)cc3)cc2C4(CCC)CCC)cc1 (stereo not shown) [Example 4, 6-methoxy-7-(piperidin-1-yl)-11-(4-trimethylsilylphenyl)-13,13-dipropyl-3-phenyl-3-(2-(2-(1-methacroylethoxy)ethoxy)ethoxy)phenyl-3H,13H-indeno[2′,3′: 3,4]naphtho[1,2-b]pyran] | excellent
4 | C=C(C)C(=O)OCCOC(=O)CCC(=O)N1CCN(c2ccc(C3(c4ccccc4)C=Cc4c5c(c6cc(N7CCCCC7)c(OC)cc6c4O3)-c3ccc([Si](C)(C)C)cc3C5(C)C)cc2)CC1 (stereo not shown) [Example 5] | excellent
